Patent US7125862B2, “Porphyrin-metal complexes and oxygen infusions containing the same” (Japan Science and Technology Agency, priority 2001, dated 2006)

Assay: Oxygen adsorption-desorption and oxygen affinity (P1/2) of the porphinatoiron(II) complex in toluene solution, by visible absorption spectrum
Assay type: binding
Description: 46.2 μg (0.03 μmol) of 2-8-(2-methyl-1-imidazolyl)octanoyloxymethyl-5,10,15,20-tetrakis(α,α,α,α-o-(1-methylcyclohexylamido)phenyl)porphinatoiron(III) complex-bromide synthesized in Example 7 was prepare into 10 ml of toluene anhydride solution and the atmosphere in the system was replaced with nitrogen. Then, the solution was mixed and stirred for 2 hours with an aqueous dithionous acid solution in a heterogeneous system to reduce the iron to the iron(II) state. Under nitrogen atmosphere, the toluene layer was extracted, dried over sodium sulfate anhydride and filtrated. The resulting toluene solution was transferred to and sealed in a measuring cell. Thus, a toluene solution of 2-8-(2-methyl-1-imidazolyl)octanoyloxymethyl-5,10,15,20-tetrakis(α,α,α,α-o-(1-methylcyclohexylamido)phenyl)porphinatoiron(II) complex was obtained. The visible absorption spectrum of this solution was λmax: 441, 539, 558 nm, and corresponded to that of a five-coordinated deoxy-type complex in which one imidazole was coordinated.
When oxygen gas was blown into this solution, the spectrum immediately changed to λmax: 424, 552 nm.
Consequently, the adsorption-desorption of oxygen could be continuously carried out by repeating the operation of blowing oxygen and then nitrogen.

In the case of “2-8-(2-methyl-1-imidazolyl)octanoyloxymethyl-5,10,15,20-tetrakis(α,α,α,α-o-(1-methylcyclohexylamido)phenyl)porphinatoiron(II) complex [Example 11]”, the “oxygen affinity (partial pressure of oxygen when 50% of the entire porphinatoiron is oxygenated (=P1/2))” value (25° C.) is reported as 20 torr and the “reversibility of adsorption-desorption of oxygen” value (oxygen blown, then nitrogen gas for 1 minute, visible absorption spectrum) is reported as “adsorption-desorption of oxygen occurred reversibly”.
